The source made the active and inactive calls. The rule behind the calls is not given here.
Experiments:
Assay type in all cases: functional, cell-based
HCT-116 = assay: Cytotoxicity against human HCT116 cells
MCF7 = assay: Cytotoxicity against human MCF7 cells
HeLa = assay: Cytotoxicity against human HeLa cells assessed as effect on phenotypic features by automated microscopy and image analysis

| SMILES | IC50 (HCT-116) | IC50 (MCF7) | Activity (HeLa) |
| --- | --- | --- | --- |
| CCCCCCCCC[C@@H]1CC(=O)N[C@H](CC(C)C)C(=O)N[C@@H](CO)C(=O)N[C@@H]([C@@H](C)O)C(=O)N[C@H](CC(C)C)C(=O)N[C@@H]([C@@H](C)CC)C(=O)O1 | 22 µM | 3 µM | – |
| CC[C@H](C)[C@@H]1NC(=O)[C@@H](CC(C)C)NC(=O)[C@H]([C@@H](C)O)NC(=O)[C@H](CO)NC(=O)[C@@H](CC(C)C)NC(=O)CCC(=O)C1=O | > 1000 µM | – | – |
| CC[C@H](C)[C@@H]1NC(=O)[C@@H](CC(C)C)NC(=O)[C@H]([C@@H](C)O)NC(=O)[C@H](CO)NC(=O)[C@@H](CC(C)C)NC(=O)CCNC1=O | > 1000 µM | – | – |
| CCCCCCCCCC[C@@H]1CC(=O)N[C@H](CC(C)C)C(=O)N[C@@H](CO)C(=O)N[C@@H]([C@@H](C)O)C(=O)N[C@H](CC(C)C)C(=O)N[C@@H]([C@@H](C)CC)C(=O)O1 | 32 µM | – | – |
| CC[C@H](C)[C@@H]1NC(=O)[C@@H](CC(C)C)NC(=O)[C@H]([C@@H](C)O)NC(=O)[C@H](CO)NC(=O)[C@@H](CC(C)C)NC(=O)C[C@@H](CCCCCCC(C)C)OC1=O | 50 µM | 6 µM | – |
| CC[C@H](C)[C@@H]1NC(=O)[C@@H](CC(C)C)NC(=O)[C@H]([C@@H](C)O)NC(=O)[C@H](CO)NC(=O)[C@@H](CC(C)C)NC(=O)C[C@@H](CCCCCCCCC(C)C)OC1=O | 17 µM | – | – |
| CCCCCC/C=C\CCC[C@@H]1CC(=O)N[C@H](CC(C)C)C(=O)N[C@@H](CO)C(=O)N[C@@H]([C@@H](C)O)C(=O)N[C@H](CC(C)C)C(=O)N[C@@H]([C@@H](C)CC)C(=O)O1 | 28 µM | 4 µM | Active |
| CCCCCCC[C@@H]1CC(=O)N[C@H](CC(C)C)C(=O)N[C@@H](CO)C(=O)N[C@@H]([C@@H](C)O)C(=O)N[C@H](CC(C)C)C(=O)N[C@@H]([C@@H](C)CC)C(=O)O1 | – | 4 µM | – |
| CCCCCCCCCCC[C@@H]1CC(=O)N[C@H](CC(C)C)C(=O)N[C@@H](CO)C(=O)N[C@@H]([C@@H](C)O)C(=O)N[C@H](CC(C)C)C(=O)N[C@@H]([C@@H](C)CC)C(=O)O1 | 18 µM | – | Active |
